Laboratory results as given in ChEMBL document CHEMBL3430912, “GSK Tres Cantos Anti-Kinetoplastid Screening (TCAKS) Data”.
pIC50: −log10 of the molar value.

Columns and labels:
Trypanosoma cruzi [1] = test: (§1) GSK_TCAKS: pIC50 Trypanosoma cruzi Imaging: Infected Cells. […] Cells were then washed once with PBS before infection. T. cruzi trypomastigotes, collected at days 5 to 8 after infection from LLC-MK2 parasite infected cultures, were allowed to swim out for 4h at 37C from a centrifuged pellet (2,500 rpm/10 min/room temperature). Trypomastigotes were then collected and counted in a CASY Cell Counter. Trypomastigotes, in supplemented DMEM, were added to H9c2 cultures in a multiplicity of infection of 1 and incubated for 18 h. Cells were washed once with PBS before incubation of the infected H9c2 monolayer with trypsin (Life-Technologies) to detach cells from the flask. Cells were counted in a CASY Cell Counter using a 150 um capillary and their density set at 5 * 10^4 cells per mL in supplemented assay DMEM. Infected H9c2 were dispensed into 384-well poly-lysine coated assay plates at 50uL per well using a Multidrop Combi dispenser. After seeding them, the plates were incubated at 37C, 5% CO2 for 72h. Cultures were then fixed and stained by addition of 50 uL of a solution containing 8% formaldehyde and 4 uM DRAQ5 DNA dye (BioStatus, UK) per well. […] Five images were collected per well for reliable statistical analysis. Automated image analysis was performed with a script developed on Acapella High Content Imaging and Analysis Software (PerkinElmer). Output: percentage of infected cells per well as a second infection marker.; type: functional, organism-based, Rattus norvegicus; conditions: H9c2, 4 h
Leishmania donovani [2] = test: (§2) GSK_TCAKS: pIC50 Leishmania donovani Imaging: Amastigotes/Macrophages. Assay plates (384-well) were prepared by adding 250nL of compound to each well. For single shot assay, the final compound concentration was 5 uM. […] Automated image analysis was performed with a script developed on Acapella High Content Imaging and Analysis Software (PerkinElmer). Output: Average number of amastigotes per macrophage cell were reported for each well.; type: functional, organism-based, Homo sapiens; conditions: THP-1
Leishmania donovani [3] = test: GSK_TCAKS: pIC50 Leishmania donovani viability assay using fluorescence intensity. Assay plates (1536-well) were prepared by adding 30nL per well of compound. For single shot assay, the final compound concentration was 5uM. […] Briefly, eGFP LdBOB axenic amastigotes were harvested, fixed and counted in a CASY cell counter (Roche-Applied Science). A final concentration of 1.5 * 10^5 cells per well were prepared in amastigote media containing 500 U/mL penicillin/streptomycin (Invitrogen) and 6uL was dispensed to each experimental well using a Multidrop Combi dispenser (Thermo Scientific). 6uL of assay media was dispensed to control columns used as reference for 100% compound response. Following incubation for 72 h at 37C, 5% CO2, 2 uL of resazurin was added to each well at a final concentration of 0.5 mM in phosphate buffered saline (PBS) with IGEPAL (Sigma-Aldrich), 0.05% (v/v).; type: functional, organism-based
[4] = test system: Trypanosoma brucei brucei; test: GSK_TCAKS: pIC50 Trypanosoma brucei viability assay using fluorescence intensity. Assay plates (1536-well) were prepared by dispensing 25nL of compound solution per well using an Echo acoustic dispenser (Labcyte).; type: functional, organism-based; conditions: Lister 427, 2 h
Trypanosoma cruzi [5] = test: GSK_TCAKS: pIC50 Trypanosoma cruzi Imaging: Amastigotes/Cell. […] Cells were then washed once with PBS before infection. T. cruzi trypomastigotes, collected at days 5 to 8 after infection from LLC-MK2 parasite infected cultures, were allowed to swim out for 4h at 37C from a centrifuged pellet (2,500 rpm/10 min/room temperature). Trypomastigotes were then collected and counted in a CASY Cell Counter. Trypomastigotes, in supplemented DMEM, were added to H9c2 cultures in a multiplicity of infection of 1 and incubated for 18 h. Cells were washed once with PBS before incubation of the infected H9c2 monolayer with trypsin (Life-Technologies) to detach cells from the flask. Cells were counted in a CASY Cell Counter using a 150 um capillary and their density set at 5 * 10^4 cells per mL in supplemented assay DMEM. Infected H9c2 were dispensed into 384-well poly-lysine coated assay plates at 50uL per well using a Multidrop Combi dispenser. After seeding them, the plates were incubated at 37C, 5% CO2 for 72h. Cultures were then fixed and stained by addition of 50 uL of a solution containing 8% formaldehyde and 4 uM DRAQ5 DNA dye (BioStatus, UK) per well. […] Five images were collected per well for reliable statistical analysis. Automated image analysis was performed with a script developed on Acapella High Content Imaging and Analysis Software (PerkinElmer). Output: number of amastigotes per cell as infection level measurement.; type: functional, organism-based, Rattus norvegicus; conditions: H9c2, 4 h
[6] = molecular target: Sterol 14-alpha demethylase (Trypanosoma cruzi (strain CL Brener), UniProt Q7Z1V1); test: GSK_TCAKS: pIC50 CYP51 from Trypanosoma cruzi.; type: functional
Sequence of Sterol 14-alpha demethylase (Q7Z1V1 whole entry): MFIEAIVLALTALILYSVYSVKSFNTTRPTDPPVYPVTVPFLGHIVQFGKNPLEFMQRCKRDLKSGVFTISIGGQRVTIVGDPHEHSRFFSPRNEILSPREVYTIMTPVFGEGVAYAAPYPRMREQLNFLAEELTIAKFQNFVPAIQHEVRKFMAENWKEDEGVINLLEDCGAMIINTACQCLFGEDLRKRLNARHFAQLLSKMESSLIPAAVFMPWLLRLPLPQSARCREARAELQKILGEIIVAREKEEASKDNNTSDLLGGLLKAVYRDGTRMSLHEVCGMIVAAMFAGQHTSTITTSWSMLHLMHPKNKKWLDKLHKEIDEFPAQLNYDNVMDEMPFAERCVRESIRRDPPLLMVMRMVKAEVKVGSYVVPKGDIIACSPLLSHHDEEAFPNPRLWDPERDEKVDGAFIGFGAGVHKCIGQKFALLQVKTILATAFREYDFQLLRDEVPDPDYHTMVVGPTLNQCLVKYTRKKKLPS

[7] = test system: Trypanosoma brucei brucei; test: GSK_TCAKS: pIC50 Trypanosoma brucei viability assay using luminiscence. Assay plates (1536-well) were prepared. T. brucei cultures were harvested and counted in a CASY cell counter. A parasite suspension was prepared at a final concentration of 5 * 10^4 cells/mL in complete HMI9 medium and 6uL was dispensed to all wells containing compounds using a Multidrop Combi dispenser. 6uL of HMI9 media with 0.4% DMSO were dispensed to control columns. Plates were incubated for 24 h at 37C, 5% CO2 then tempered for 10 min at room temperature. ATP content was quantified by adding 4 uL of CellTiter-Glo Reagent (Promega) according to the manufacturer's instructions. Luminescence was measured using a ViewLux.; type: functional, organism-based; conditions: Lister 427, CASY
Leishmania donovani [8] = test: as §2, with “THP-1 Host Macrophages.” for “Amastigotes/Macrophages.”, “THP-1” for “Average number of amastigotes per macrophage”, “cell count” for “cell”; type: functional, organism-based, Homo sapiens
Trypanosoma cruzi [9] = test: as §1, with “H2C9” for “Trypanosoma cruzi”, “H9c2 Host Cardiomyocytes.” for “Infected Cells.”, “Number” for “percentage”, “H9c2 Host Cardiomyocytes nuclei to determine drug-related cytotoxicity.” for “infected cells per well as a second infection marker.”; type: functional, organism-based, Rattus norvegicus; conditions: H9c2, 4 h
[10] = GSK_TCAKS: pIC50 HepG2 human cell line viability assay using luminiscence. […] Seeding density was checked to ensure that new mono-layers were not more than 50% confluent at the time of harvesting. Cell suspension was added to 500 mL of the same medium at a final density of 1.2 * 10^5 cells/mL. This cell suspension was dispensed (25 uL, 3000 cells per well) into 384-well clear-bottom plates using a Multidrop Combi dispenser. Prior to addition of the cell suspension, the screening compounds (250 nL) were pre-dispensed into the plates with an Echo liquid handler. Plates were incubated for 48 h at 37C, 5% CO2. After incubation, plates equilibrated at room temperature for 30 min before proceeding to develop the luminescent signal. The signal developer, CellTiter-Glo Reagent, was allowed to equilibrate at room temperature for 30 min and added to the plates (25uL per well) using a Multidrop Combi dispenser. Plates were left for 10 min at room temperature for stabilization and then read using a ViewLux.; type: toxicity, cell-based
Leishmania donovani [11] = test: as §2, with “Infected Macrophages.” for “Amastigotes/Macrophages.”, “Percent” for “Average number”, “infected” for “amastigotes per”, “cells” for “cell”; type: functional, organism-based, Homo sapiens; conditions: THP-1
Trypanosoma cruzi [12] = test: GSK_TCAKS: pIC50 Trypanosoma cruzi viability assay using beta-GAL activity. This assay was run at single shot at 5uM compound concentration per well. The biological reagents consisted of NIH-3T3 host cells and trypomastigotes parasitic cells; both cell types were set to a 3.3 * 10^5 cells/mL dilution in assay DMEM by means of a CASY cell counter device using a 60um capillary. 6 uL of the mixture were dispensed per well (about 1 * 10^3 host-cells and 1 * 10^3 parasites) with a Multidrop Combi dispenser. […] In all wells, the percentage of DMSO never exceeded 0.5%. Plates incubated for four days at 37C, 5% CO2. The substrate used for the assay fluorescence intensity (FLINT) readout was resorufin-beta-D-galactopiranoside (Sigma-Aldrich) at 5uM per well. It was diluted in PBS supplemented with the soft detergent Igepal (Fluka).; type: functional, organism-based, Mus musculus; conditions: Tulahuen, NIH3T3

| Compound | pIC50 (Trypanosoma cruzi [1]) | pIC50 (Leishmania donovani [2]) | pIC50 (Leishmania donovani [3]) | pIC50 [4] | pIC50 (Trypanosoma cruzi [5]) | pIC50 [6] | pIC50 [7] | pIC50 (Leishmania donovani [8]) | pIC50 (Trypanosoma cruzi [9]) | IC50 at 48 h [10] [µM] | pIC50 (Leishmania donovani [11]) | pIC50 (Trypanosoma cruzi [12]) |
| --- | --- | --- | --- | --- | --- | --- | --- | --- | --- | --- | --- | --- |
| CC(C)CC(=O)NC(c1cccs1)c1ccc2cccnc2c1O (stereo unspecified) | 5.90 | 5.50 | 5.20 | 6.20 | 6.10 | 4.30 | 6.20 | 5.80 | 5.70 | > 100 | 5.10 | 5.80 |
| COc1ccccc1-n1c(SCC(=O)Nc2ccc3c(c2)OCO3)nc2c(c1=O)SCC2 | 4.80 | 5.30 | 5.00 | < 4.40 | 5.10 | 4.20 | < 4.40 | < 4.30 | < 4.30 | > 100 | 5.10 | 4.40 |
| COc1ccc2ncc(Cl)c(CCN3CC[C@@H](NCc4cc5c(cn4)OCS5)[C@H](O)C3)c2n1 | 7.10 | 5.10 | 5.00 | 6.50 | 7.20 | 6.00 | 6.40 | 4.60 | 4.60 | 50.1 | 4.90 | 6.90 |
| COc1ccc2ncc(Cl)c(CCN3CC[C@H](NCc4cc5c(cn4)OCS5)[C@@H](O)C3)c2n1 | 6.80 | 6.30 | 5.70 | 6.50 | 7.00 | 5.10 | 6.20 | 5.20 | 5.00 | 25.1 | 6.00 | 6.90 |
| C[C@@H](Oc1cc(-n2cnc3ccc(O[C@H]4CCNC4)cc32)sc1C(N)=O)c1ccccc1Cl | 4.90 | 5.30 | < 4.30 | 6.60 | 5.20 | 5.90 | 6.10 | 5.20 | 6.20 | 15.8 | 5.10 | 5.50 |
| O=C(Cc1ccccc1)Nc1ccccc1C(=O)Nc1nccs1 | < 4.30 | < 4.30 | < 4.30 | 6.60 | < 4.30 | < 4.00 | 6.60 | < 4.30 | < 4.30 | > 100 | < 4.30 | 4.40 |
| CC(C)(C)c1csc(NC(=O)c2ccc([N+](=O)[O-])s2)n1 | 6.50 | 5.60 | 5.80 | 6.70 | 6.70 | 5.10 | 5.80 | < 4.30 | 4.90 | 50.1 | 5.50 | 6.80 |
| CCN(Cc1nc2ccc(C(=O)N3CCN(c4ncccn4)CC3)cc2[nH]1)C1CCCc2cccnc21 (stereo unspecified) | 4.90 | 5.80 | 5.30 | 5.60 | 5.70 | 5.10 | 5.30 | 4.70 | 4.80 | > 100 | 5.40 | 5.90 |
